Results from PubChem BioAssay (NCI).
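GI50 = concentration required for 50% inhibition of growth. TGI: concentration producing complete growth inhibition.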

Columns and labels:
Assay in all cases: NCI anticancer screen, dose series, 384-well format
786-0 renal = system: 786-0 renal
A498 renal = system: A498 renal
A549 NSCLC = system: A549 NSCLC
ACHN renal = system: ACHN renal
BT-549 breast = system: BT-549 breast
CAKI-1 renal = system: CAKI-1 renal
CCRF-CEM leukemia = system: CCRF-CEM leukemia
COLO 205 colon = system: COLO 205 colon
DU-145 prostate = system: DU-145 prostate
HCC-2998 colon = system: HCC-2998 colon
HCT-116 colon = system: HCT-116 colon
HCT-15 colon = system: HCT-15 colon
HL-60(TB) leukemia = system: HL-60(TB) leukemia
HOP-62 NSCLC = system: HOP-62 NSCLC
HS 578T breast = system: HS 578T breast
HT29 colon = system: HT29 colon
IGROV1 ovarian = system: IGROV1 ovarian
K-562 leukemia = system: K-562 leukemia
KM12 colon = system: KM12 colon
LOX IMVI melanoma = system: LOX IMVI melanoma
M14 melanoma = system: M14 melanoma
MALME-3M melanoma = system: MALME-3M melanoma
MCF7 breast = system: MCF7 breast
MDA-MB-231 breast = system: MDA-MB-231 breast
MDA-MB-435 melanoma = system: MDA-MB-435 melanoma
MDA-MB-468 breast = system: MDA-MB-468 breast
MOLT-4 leukemia = system: MOLT-4 leukemia
NCI-H226 lung = system: NCI-H226 lung
NCI-H23 lung = system: NCI-H23 lung
NCI-H322M lung = system: NCI-H322M lung
NCI-H522 lung = system: NCI-H522 lung
NCI/ADR-RES ovarian = system: NCI/ADR-RES ovarian
OVCAR-3 ovarian = system: OVCAR-3 ovarian
OVCAR-4 ovarian = system: OVCAR-4 ovarian
OVCAR-5 ovarian = system: OVCAR-5 ovarian
OVCAR-8 ovarian = system: OVCAR-8 ovarian
PC-3 prostate = system: PC-3 prostate
RPMI-8226 leukemia = system: RPMI-8226 leukemia
RXF 393 renal = system: RXF 393 renal
SF-268 CNS = system: SF-268 CNS
SF-295 CNS = system: SF-295 CNS
SF-539 CNS = system: SF-539 CNS
SK-MEL-2 melanoma = system: SK-MEL-2 melanoma
SK-MEL-28 melanoma = system: SK-MEL-28 melanoma
SK-MEL-5 melanoma = system: SK-MEL-5 melanoma
SK-OV-3 ovarian = system: SK-OV-3 ovarian
SN12C renal = system: SN12C renal
SNB-19 CNS = system: SNB-19 CNS
SNB-75 CNS = system: SNB-75 CNS
SW-620 colon = system: SW-620 colon
T-47D breast = system: T-47D breast
TK-10 renal = system: TK-10 renal
U251 glioblastoma = system: U251 glioblastoma
UACC-257 melanoma = system: UACC-257 melanoma
UACC-62 melanoma = system: UACC-62 melanoma
UO-31 renal = system: UO-31 renal

For COc1c(OC[C@H](O)CN2CCOCC2)ccc2c3n(c(=NC(=O)c4cccnc4C)nc12)CCN3, which GI50 ([…]-0 renal) is on record?
Its GI50 is > 100 µM.

And the TGI (786-0 renal)?
Its TGI is > 100 µM.

What about the GI50 (A498 renal) of the same molecule?
Its GI50 is > 100 µM.

What about the TGI (A498 renal) of the same molecule?
The TGI was > 100 µM.

What about the GI50 (A549 NSCLC) of the same molecule?
The GI50 was > 100 µM.

And the TGI (A549 NSCLC)?
The TGI was > 100 µM.

And the GI50 (ACHN renal)?
The GI50 was > 100 µM.

And the TGI (ACHN renal)?
Its TGI is > 100 µM.

What about the GI50 (BT-549 breast) of the same molecule?
Its GI50 is 38.6 µM.

And the TGI (BT-549 breast)?
Its TGI is > 100 µM.

And the GI50 (CAKI-1 renal)?
The GI50 was > 100 µM.

What about the TGI (CAKI-1 renal) of the same molecule?
Its TGI is > 100 µM.

What about the GI50 (CCRF-CEM leukemia) of the same molecule?
The GI50 was 4.36 µM.

What about the TGI (CCRF-CEM leukemia) of the same molecule?
The TGI was > 100 µM.

What about the GI50 (COLO 205 colon) of the same molecule?
The GI50 was > 100 µM.

And the TGI (COLO 205 colon)?
Its TGI is > 100 µM.

What about the GI50 (DU-145 prostate) of the same molecule?
Its GI50 is > 100 µM.

And the TGI (DU-145 prostate)?
Its TGI is > 100 µM.

And the GI50 (HCC-2998 colon)?
Its GI50 is > 100 µM.

What about the TGI (HCC-2998 colon) of the same molecule?
The TGI was > 100 µM.

And the GI50 (HCT-116 colon)?
Its GI50 is > 100 µM.

What about the TGI (HCT-116 colon) of the same molecule?
The TGI was > 100 µM.

And the GI50 (HCT-15 colon)?
Its GI50 is > 100 µM.

What about the TGI (HCT-15 colon) of the same molecule?
The TGI was > 100 µM.

What about the GI50 (HL-60(TB) leukemia) of the same molecule?
The GI50 was 0.0145 µM.

What about the TGI (HL-60(TB) leukemia) of the same molecule?
The TGI was > 100 µM.

And the GI50 (HOP-62 NSCLC)?
Its GI50 is > 100 µM.

What about the TGI (HOP-62 NSCLC) of the same molecule?
The TGI was > 100 µM.

And the GI50 (HS 578T breast)?
The GI50 was 3.51 µM.

What about the TGI (HS 578T breast) of the same molecule?
Its TGI is > 100 µM.

What about the GI50 (HT29 colon) of the same molecule?
Its GI50 is > 100 µM.

What about the TGI (HT29 colon) of the same molecule?
The TGI was > 100 µM.

What about the GI50 (IGROV1 ovarian) of the same molecule?
The GI50 was 0.111 µM.

What about the TGI (IGROV1 ovarian) of the same molecule?
Its TGI is > 100 µM.

And the GI50 (K-562 leukemia)?
Its GI50 is > 100 µM.

And the TGI (K-562 leukemia)?
The TGI was > 100 µM.

What about the GI50 (KM12 colon) of the same molecule?
The GI50 was > 100 µM.

And the TGI (KM12 colon)?
The TGI was > 100 µM.

What about the GI50 (LOX IMVI melanoma) of the same molecule?
Its GI50 is > 100 µM.

What about the TGI (LOX IMVI melanoma) of the same molecule?
Its TGI is > 100 µM.

What about the GI50 (M14 melanoma) of the same molecule?
Its GI50 is > 100 µM.

And the TGI (M14 melanoma)?
The TGI was > 100 µM.

What about the GI50 (MALME-3M melanoma) of the same molecule?
The GI50 was > 100 µM.

What about the TGI (MALME-3M melanoma) of the same molecule?
Its TGI is > 100 µM.

What about the GI50 (MCF7 breast) of the same molecule?
Its GI50 is 0.0879 µM.

And the TGI (MCF7 breast)?
The TGI was > 100 µM.

And the GI50 (MDA-MB-231 breast)?
Its GI50 is > 100 µM.

What about the TGI (MDA-MB-231 breast) of the same molecule?
Its TGI is > 100 µM.

And the GI50 (MDA-MB-435 melanoma)?
Its GI50 is > 100 µM.

What about the TGI (MDA-MB-435 melanoma) of the same molecule?
Its TGI is > 100 µM.

What about the GI50 (MDA-MB-468 breast) of the same molecule?
Its GI50 is 0.439 µM.

What about the TGI (MDA-MB-468 breast) of the same molecule?
The TGI was > 100 µM.

What about the GI50 (MOLT-4 leukemia) of the same molecule?
Its GI50 is 0.16 µM.

What about the TGI (MOLT-4 leukemia) of the same molecule?
The TGI was > 100 µM.

And the GI50 (NCI-H226 lung)?
The GI50 was > 100 µM.

What about the TGI (NCI-H226 lung) of the same molecule?
Its TGI is > 100 µM.

And the GI50 (NCI-H23 lung)?
The GI50 was > 100 µM.

And the TGI (NCI-H23 lung)?
Its TGI is > 100 µM.

What about the GI50 (NCI-H322M lung) of the same molecule?
The GI50 was 67.1 µM.

What about the TGI (NCI-H322M lung) of the same molecule?
The TGI was > 100 µM.

And the GI50 (NCI-H522 lung)?
The GI50 was > 100 µM.

What about the TGI (NCI-H522 lung) of the same molecule?
Its TGI is > 100 µM.

What about the GI50 (NCI/ADR-RES ovarian) of the same molecule?
Its GI50 is > 100 µM.

What about the TGI (NCI/ADR-RES ovarian) of the same molecule?
Its TGI is > 100 µM.

What about the GI50 (OVCAR-3 ovarian) of the same molecule?
The GI50 was > 100 µM.

And the TGI (OVCAR-3 ovarian)?
The TGI was > 100 µM.

And the GI50 (OVCAR-4 ovarian)?
Its GI50 is > 100 µM.

And the TGI (OVCAR-4 ovarian)?
Its TGI is > 100 µM.

And the GI50 (OVCAR-5 ovarian)?
Its GI50 is > 100 µM.

And the TGI (OVCAR-5 ovarian)?
The TGI was > 100 µM.

What about the GI50 (OVCAR-8 ovarian) of the same molecule?
The GI50 was > 100 µM.

What about the TGI (OVCAR-8 ovarian) of the same molecule?
Its TGI is > 100 µM.

What about the GI50 (PC-3 prostate) of the same molecule?
The GI50 was 0.657 µM.

What about the TGI (PC-3 prostate) of the same molecule?
Its TGI is > 100 µM.

What about the GI50 (RPMI-8226 leukemia) of the same molecule?
The GI50 was > 100 µM.

And the TGI (RPMI-8226 leukemia)?
Its TGI is > 100 µM.

What about the GI50 (RXF 393 renal) of the same molecule?
The GI50 was > 100 µM.

And the TGI (RXF 393 renal)?
The TGI was > 100 µM.

What about the GI50 (SF-268 CNS) of the same molecule?
Its GI50 is > 100 µM.

And the TGI (SF-268 CNS)?
Its TGI is > 100 µM.

What about the GI50 (SF-295 CNS) of the same molecule?
The GI50 was > 100 µM.

What about the TGI (SF-295 CNS) of the same molecule?
The TGI was > 100 µM.

And the GI50 (SF-539 CNS)?
The GI50 was > 100 µM.

What about the TGI (SF-539 CNS) of the same molecule?
The TGI was > 100 µM.

And the GI50 (SK-MEL-2 melanoma)?
The GI50 was > 100 µM.

And the TGI (SK-MEL-2 melanoma)?
Its TGI is > 100 µM.

And the GI50 (SK-MEL-28 melanoma)?
Its GI50 is 55.1 µM.

What about the TGI (SK-MEL-28 melanoma) of the same molecule?
Its TGI is > 100 µM.

And the GI50 (SK-MEL-5 melanoma)?
Its GI50 is > 100 µM.

What about the TGI (SK-MEL-5 melanoma) of the same molecule?
The TGI was > 100 µM.

And the GI50 (SK-OV-3 ovarian)?
The GI50 was 0.413 µM.

What about the TGI (SK-OV-3 ovarian) of the same molecule?
The TGI was > 100 µM.

What about the GI50 (SN12C renal) of the same molecule?
Its GI50 is > 100 µM.

What about the TGI (SN12C renal) of the same molecule?
The TGI was > 100 µM.

And the GI50 (SNB-19 CNS)?
The GI50 was > 100 µM.

And the TGI (SNB-19 CNS)?
Its TGI is > 100 µM.

What about the GI50 (SNB-75 CNS) of the same molecule?
Its GI50 is 0.124 µM.

What about the TGI (SNB-75 CNS) of the same molecule?
The TGI was > 100 µM.

And the GI50 (SW-620 colon)?
The GI50 was > 100 µM.

What about the TGI (SW-620 colon) of the same molecule?
The TGI was > 100 µM.

What about the GI50 (T-47D breast) of the same molecule?
Its GI50 is 0.0446 µM.

What about the TGI (T-47D breast) of the same molecule?
The TGI was 0.573 µM.

What about the GI50 (TK-10 renal) of the same molecule?
The GI50 was 2.86 µM.

And the TGI (TK-10 renal)?
The TGI was > 100 µM.

And the GI50 (U251 glioblastoma)?
The GI50 was > 100 µM.

What about the TGI (U251 glioblastoma) of the same molecule?
The TGI was > 100 µM.

And the GI50 (UACC-257 melanoma)?
Its GI50 is > 100 µM.

And the TGI (UACC-257 melanoma)?
The TGI was > 100 µM.

What about the GI50 (UACC-62 melanoma) of the same molecule?
The GI50 was > 100 µM.

And the TGI (UACC-62 melanoma)?
The TGI was > 100 µM.

What about the GI50 (UO-31 renal) of the same molecule?
Its GI50 is > 100 µM.

And the TGI (UO-31 renal)?
Its TGI is > 100 µM.
